These results are taken from patent US12215140B2, “Method of stabilizing protein contained in specimen and solution for stabilizing protein contained in specimen” (EIKEN KAGAKU KABUSHIKI KAISHA, priority 2018, dated 2025).

For this test, the system named is hemoglobin-haptoglobin complex. The test is described as follows: Stability of hemoglobin (as hemoglobin-haptoglobin complex) in samples preserved at 37° C. in preservation solution containing 1 unit/L haptoglobin, Hb measured by latex agglutination method (Examples 1 to 7). To be noted: arylboronic acid 15 mmol/L, 37° C. On the set-up: species or system human. As to the method:
Preservation solutions were prepared with the addition of 40 mmol/L HEPES (pH 6.8), 0.1% BSA, 0.1% NaN3, 1 unit/L haptoglobin, and 0 to 100 mmol/L phenylboronic acid. Samples obtained by adding hemoglobin-added fecal specimens to the preservation solutions so that the fecal concentration would be 0.5% were preserved at 37° C. for 0, 7, 14, and 21 days. The fecal specimens were added with hemoglobin having an amount such that the hemoglobin concentration in the samples would be about 300 μg/L. Instead of the fecal specimens to which hemoglobin was added, samples containing no fecal specimens, in which hemoglobin was added to the preservation solutions so that the hemoglobin concentration in the samples would be 300 μg/L, were similarly preserved. The hemoglobin (Hb) concentrations (μg/L) in the preserved samples were measured by the latex agglutination method.
The concentrations of hemoglobin were measured using “OC-Hemodia (registered trademark) Auto III ‘EIKEN’” (available from EIKEN CHEMICAL CO., LTD.) as a measurement reagent and “OC-sensor DIANA” (available from EIKEN CHEMICAL CO., LTD.) as a measurement device. The above measurement reagent contains latex particles immobilizing an anti-human hemoglobin rabbit polyclonal antibody.
From the measured concentrations of hemoglobin, the recovery ratios (%) were calculated with respect to the hemoglobin concentrations immediately after the fecal specimens were added to the preservation solutions (i.e., concentrations 0 days after the fecal specimens were added).
(§1) For comparative examples, preservation solutions to which no arylboronic acid was added were prepared, and testing was conducted in the same manner.
The concentration of phenylboronic acid in the preservation solutions of Example 1 was fixed to 15 mmol/L, preservation solutions to which a sugar (sorbitol, sucrose, trehalose, glucose, fructose, or mannitol) was further added at 50 mmol/L or 100 mmol/L or preservation solutions to which no sugar was added were prepared, and testing was conducted in the same manner as in Example 1. For comparative examples, preservation solutions to which the phenylboronic acid and sugar were not added were prepared, and testing was conducted in the same manner.
Preservation solutions in which sorbitol, sucrose, trehalose, glucose, fructose, or mannitol was added at 100 mmol/L to the preservation solutions of Example 1 containing no phenylboronic acid were prepared, and testing was conducted in the same manner as in Example 1. For comparison, the same testing was conducted without adding these sugars.
The concentration of phenylboronic acid in the preservation solutions of Example 1 was fixed to 15 mmol/L, preservation solutions to which sorbitol was added at 10 to 500 mmol/L or sucrose was added at 10 to 250 mmol/L or preservation solutions to which no sugar was added were prepared, and testing was conducted in the same manner as in Example 1. For comparative examples, preservation solutions to which the phenylboronic acid and sugar were not added were prepared, and testing was conducted in the same manner.
as §1

With `O=C(O)c1ccccc1B(O)O` [2C-PBA, 2-carboxyphenylboronic acid], the Hb concentration is 315 µg/L (Feces 1, 0 days); 196 µg/L (Feces 1, 7 days); 150 µg/L (Feces 1, 14 days); 311 µg/L (Feces 2, 0 days); 157 µg/L (Feces 2, 7 days); 103 µg/L (Feces 2, 14 days). Besides, the Hb concentration (Feces 3, 0 days) came to 300 µg/L; the Hb concentration (Feces 3, 7 days) was 124 µg/L; the Hb concentration (Feces 3, 14 days) came out at 76 µg/L; the Hb concentration (No feces, 0 days) amounted to 292 µg/L; the Hb concentration (No feces, 7 days) was 272 µg/L; the Hb concentration (No feces, 14 days) was found to be 264 µg/L. In addition, the “Recovery ratio with respect to Hb after 0 days” value (shortened to “Recovery ratio”) (Feces 1, 0 days) is recorded as 100%; the “Recovery ratio” value (Feces 1, 7 days) is reported as 62%; the “Recovery ratio” value (Feces 1, 14 days) is recorded as 48%; the “Recovery ratio” value (Feces 2, 0 days) is 100%; the “Recovery ratio” value (Feces 2, 7 days) worked out at 50%; the “Recovery ratio” value (Feces 2, 14 days) is listed as 33%. In addition, the “Recovery ratio” value reads like this: (Feces 3, 0 days) 100%; (Feces 3, 7 days) 41%; (Feces 3, 14 days) 25%; (No feces, 0 days) 100%; (No feces, 7 days) 93%; (No feces, 14 days) 90%.
Consider `O=C(O)c1ccc(B(O)O)cc1` [4C-PBA, 4-carboxyphenylboronic acid], for which the Hb concentration runs as follows: (Feces 1, 0 days) 312 µg/L; (Feces 1, 7 days) 252 µg/L; (Feces 1, 14 days) 234 µg/L; (Feces 2, 0 days) 315 µg/L; (Feces 2, 7 days) 239 µg/L; (Feces 2, 14 days) 227 µg/L. Also, the Hb concentration is, setting by setting: (Feces 3, 0 days) 300 µg/L; (Feces 3, 7 days) 219 µg/L; (Feces 3, 14 days) 194 µg/L; (No feces, 0 days) 279 µg/L; (No feces, 7 days) 275 µg/L; (No feces, 14 days) 271 µg/L. The “Recovery ratio” value (Feces 1, 0 days) turned out to be 100%; the “Recovery ratio” value (Feces 1, 7 days) is listed as 81%; the “Recovery ratio” value (Feces 1, 14 days) was 75%; the “Recovery ratio” value (Feces 2, 0 days) was 100%; the “Recovery ratio” value (Feces 2, 7 days) is reported as 76%; the “Recovery ratio” value (Feces 2, 14 days) was found to be 72%. For the same molecule, the “Recovery ratio” value stood at 100% (Feces 3, 0 days); 73% (Feces 3, 7 days); 65% (Feces 3, 14 days); 100% (No feces, 0 days); 98% (No feces, 7 days); 97% (No feces, 14 days).
